Experiments:
human MIP-1α = molecular target: T1, human MIP-1α (Homo sapiens, UniProt P10147); assay: MIP-1α induced migration of DMSO treated U937 cells (chemotaxis); format: cell-based; settings: MIP-1α 40 ng/ml
T1 sequence (P10147 24-92): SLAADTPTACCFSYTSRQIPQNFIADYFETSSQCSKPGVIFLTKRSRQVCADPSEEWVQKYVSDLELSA
Procedure: DMSO treated U937 cells were used to examine the cell migration in response to MIP-1α. U937 cells are a promonocytic human cell line originally derived from the pleural effusion of a patient with histiocytic lymphoma. These cells were treated with DMSO (1.2%) for 4 days before being used in chemotaxis experiments. The chemotaxis assays were performed in 96-well Costar chemotaxis plates and human MIP-1α (+/−inhibitor) was added to the bottom chamber and the DMSO treated U937 cells in RPMI/HEPES were added to the top chamber and the plate was incubated at 37° C. for 3 hour to allow cells to move from the top chamber into the bottom. The number of cells migrating into the bottom chamber was quantified by labeling with AQUEOUS ONE (30 μl/well) for 1 hour before absorbance at 490 nm is read. MIP-1α was used at a final concentration of 40 ng/ml and the inhibitors were the sulfated xylan pentasaccharide (10 and 50 μg/ml) and PPS (10 and 50 μg/ml). It is clear from these experiments that both PPS and the sulfated xylan pentasaccharide inhibited MIP-1α stimulated cell movement.

[1] = molecular target: T2, recombinant human eotaxin (CCL11) (Homo sapiens, UniProt P51671); assay: BIAcore inhibition of eotaxin-1 binding to immobilized heparin; settings: BIAcore chip, FIG. 3D
T2 construct: host or cells: E. coli
Excerpt: The optical phenomenon of surface plasmon resonance is used to monitor physical interactions between molecules. Passing a solution of a potential protein ligand (e.g. IL-4, IL-5 or eotaxin) over a sensor surface to which a target (e.g. heparin) is coupled monitors the real-time binding of protein ligands to the immobilized target. Detection is achieved by measuring refractive index changes very close to the sensor surface. When the refractive index is altered, the angle at which plasmon resonance occurs changes and this change directly correlates with the amount of protein interacting with the surface. A BIAcore 2000 is conveniently used. […]
Biotinylated heparin is immobilized on the biosensor chip. […] Solutions containing potential protein ligands of interest are injected over the sensor chip surface, and the binding is measured in real time (Fernig, In: Proteoglycan protocols, Ed. R. V. Iozzo, Humana Press, Totowa, N.J., USA, 2001). Baculovirus expressed recombinant human IL-4 (rhIL-4) and baculovirus expressed recombinant human IL-5 (rhIL-5) readily bind to heparin immobilized by this method (see PCT/AU2005/000551). […] Similarly, recombinant human eotaxin (CCL11) expressed in E. coli binds readily to immobilized heparin and binding is specific as there is little eotaxin binding to sensor chips lacking heparin. […]

IL-4 = molecular target: T3, IL-4 (Homo sapiens, UniProt P05112); assay: IL-4 dependent TF-1.8 cell proliferation (luciferase); format: cell-based
T3 construct: made in house
T3 sequence (P05112 25-153): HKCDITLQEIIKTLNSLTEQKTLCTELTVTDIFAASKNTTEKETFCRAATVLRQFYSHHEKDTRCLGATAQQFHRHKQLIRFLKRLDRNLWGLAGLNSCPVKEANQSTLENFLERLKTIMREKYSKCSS
Excerpt: PPS inhibited the proliferation of a human IL-4 responsive cell line. This occurs at very low doses and is not due to a toxic effect of the pentosan polysulfate because other, similarly sulfated polysaccharides, at the same concentrations of IL-4 and polysaccharide have no effect. These experiments utilize the TF-1.8 cells. TF-1.8 cells are a subclone of the TF-1 cells that have been selected for growth in IL-4 or IL-5. TF-1 cells were originally established from a bone marrow sample from a person with severe pancytopenia. These cells are dependent on IL-3 or GM-CSF for long term growth and are responsive to a variety of cytokines including IL-4, […].
TF-1.8 cells have been transfected with the firefly luciferase gene contained in the expression vector, pPGK-puromycin-luciferase (Coombe et al, 1998, supra). […] The cells are counted with a Coulter Z2 Particle Counter and Size Analyzer (Coulter Electronics, England) and routinely 2.5×10^4 cells are added to microplate wells that contain either no IL-4 (negative control) or various dilutions of IL-4. When the effect of PPS, or other sulfated polysaccharides is to be measured, the wells also contain various concentrations of these molecules. […]
The size of the sulfated xylose polysaccharides is also an important component of its anti-IL-4 activity. […] Light emissions are detected on a Victor 1420 Multi-label counter (Wallac, Turku, Finland). […]

[2] = relative to heparin; cited from earlier work

- Inhibition of MIP-1α stimulated cell movement (human MIP-1α; 10 μg/ml): 48%
- Inhibition of MIP-1α stimulated cell movement (human MIP-1α; 50 μg/ml): 69%
- IC50 [1]: ~0.015 µM
- Inhibition of IL-4 dependent proliferation of TF-1.8 cells (in words) (IL-4; dose-response, FIG. 5): markedly inhibits
- Percentage Inhibition of IL-4 induced TF-1.8 cell proliferation (IL-4; inhibitor 5.0 μg/ml, IL-4 2.5 ng/ml, 48 hours): 58%
Substance: Pentosan polysulfate [PPS]
- Anticoagulant activity as fraction of that of heparin [2]: about 1/15

Source: US20180078576A1, “SULPHATED XYLANS FOR TREATMENT OR PROPHYLAXIS OF RESPIRATORY DISEASES” (Paradigm Biopharmaceuticals Limited, priority 2007, published 2018)
